Laboratory results as given in US20240252508A1, “Novel glucose uptake inhibitors for use in the treatment of cancer” (NOVELYEAST BV, priority 2021, published 2024).

Legend:
[1] = tested on: tps1Δ cells; test: Growth rescue of tps1Δ strain on glucose (growth curves, 2% galactose medium); format: cell-based, S. cerevisiae; settings: 100 μM compound, 2.5 mM glucose
Method: Growth curves were made by measuring OD595 in a 96-well plate using the Multiskan™ FC Microplate Photometer (Thermo Fisher Scientific). Typically, for tps1Δ rescue experiments (FIG. 2b-e; FIG. 4a), cells were (pre)grown in Complete Synthetic medium containing 2% galactose.
Compounds were always added 10 min prior to glucose addition to ensure maximal interaction between the cells and compounds. Cells originating from the preculture were harvested, washed in medium without sugar, after which they were resuspended to an OD of 0.1 in 200 μL of the appropriate medium. At least three technical replicates were included per condition. OD595 was measured at 30° C. every 30 min with a 10-min shaking interval.

[2] = tested on: A549 lung adenocarcinoma cells; test: A549 cell proliferation / growth inhibition; format: cell-based, human; settings: for Selected from primary screen for growth inhibition of A549 cells at 50 μM: 50 μM compound, 1 mM glucose; for Selected for having an IC50 ratio (10 mM glucose: 1 mM glucose) of A549 growth higher than WBC-A: IC50 on 10 mM vs 1 mM glucose, compared with WBC-A
Method: The analog library (n=203) was screened for inhibition of growth of A549 cells on RPMI medium supplemented with 1 mM glucose. DMSO (green bar) and WBC-A (orange bar) served as negative and positive control, respectively. In addition, the reference glucose transport inhibitors STF-31, Fasentin, BAY-876, WZB-117 and Cytochalasin B were included and indicated in red. Compounds were added at 50 μM concentration. Number of cells was determined by counting nuclei stained by Hoechst after three days of growth.
For both adherent A549 and MCF10Δ H-RAS^V12 cell lines, growth curves were established using the IncuCyte® ZOOM technology. By collecting phase contrast images, the IncuCyte® software provides a calculated confluency percentage from which growth curves can be deducted.
Cells were seeded at a density of 1000-1500 cells/well in a Nunc-Edge™ 96-well plate (Thermo Fisher Scientific) and growth was typically measured over 3 to 5 days. For the measurement of apoptosis induction using the MCF10Δ H-RAS^V12 cell line, the IncuCyte® Caspase-3/7 green dye was added to the medium in the recommended concentration at the beginning of the growth curve experiment. Apoptosis was detected by taking fluorescent images by excitation at 488 nm followed by IncuCyte® software analysis. Cell growth of the KMS-12-PE multiple myeloma cell line, which grows in suspension, was measured by manual cell counting. Cells were initially seeded at a density of 10^4 cells/well and incubated for 4 days after which the cell number was counted. For all cell lines, the same medium used for pregrowth was also used for the growth curve experiment, albeit with different glucose concentrations depending on the experimental design. With compound administration, the final concentration of DMSO never exceeded 0.1%. Typically, at least four technical repeats were included per condition.

Row | SMILES | Rescue of the tps1Δ strain on 2.5 mM glucose at 100 μM [1] | Selected from primary screen for growth inhibition of A549 cells at 50 μM [2] | Selected for having an IC50 ratio (10 mM glucose: 1 mM glucose) of A549 growth higher than WBC-A [2]
1 | CC(C)Sc1nc(SCCN2CCOCC2)c2c3c(sc2n1)COC(C)(C)C3 [80C] | No | No | –
2 | Cc1nc(S)c2c(-c3cccs3)csc2n1 [67A] | No | No | –
3 | CN(Cc1nnc2n1CCCCC2)c1ncnc2sc(-c3ccccc3)cc12 [34A] | No | No | –
4 | CCCN(CC1CC1)C(=O)CSc1nc(C)nc2scc(-c3cccs3)c12 [9B] | No | No | –
5 | Cc1nc(SCCN2CCOCC2)c2cc(-c3ccccc3)sc2n1 [41C] | No | Yes | Lower IC50 ratio
6 | CC(=O)Nc1ccc(C(=O)CSc2nc(C)nc3scc(-c4cccs4)c23)cc1 [17B] | No | Yes | Higher IC50 ratio, but false-positive
7 | Cc1nc(SC(C)C(=O)NC(C)C)c2c(-c3cccs3)csc2n1 (centres unmarked) [33B] | No | Yes | Lower IC50 ratio
8 | Cc1nc(Sc2nnc(-c3ccncc3)n2C)c2c(-c3cccs3)csc2n1 [26A] | Yes | Yes | Lower IC50 ratio
9 | Cc1nc(NCC(=O)Nc2ccccc2Br)c2c(-c3cccs3)csc2n1 [15C] | No | Yes | Higher IC50 ratio and confirmed
10 | Cc1sc2nc(-c3cccs3)nc(N(C)Cc3nnc4n3CCCCC4)c2c1C [36A] | No | No | –
11 | Cc1nc(Sc2nnc(C)[nH]2)c2c(-c3ccccc3)csc2n1 [13A] | No | No | –
12 | Cc1nc(Sc2nnc3n2CCC(CN=[N+]=[N-])CC3)c2c(-c3cccs3)csc2n1 (centres unmarked) [87C] | Yes | Yes | Lower IC50 ratio
13 | Cc1cc(C)n2nc(Sc3nc(C)nc4scc(-c5cccs5)c34)nc2n1 [3A] | No | No | –
14 | Cc1nc(SCC(N)=O)c2c(C)c(C)sc2n1 [61C] | No | No | –
15 | CCOC(=O)CNC(=O)CSc1nnc(C)c2cnn(-c3ccccc3)c12 [73C] | No | No | –
16 | Cc1nc(SCC(=O)Nc2ccccc2C#N)c2c(-c3cccs3)csc2n1 [19B] | No | No | –
17 | Cc1nc(SCC(=O)c2c(N)n(C)c(=O)n(C)c2=O)c2c(-c3cccs3)csc2n1 [1B] | No | No | –
18 | Cc1sc2nc(CSc3ccccc3)nc(NCc3nnc4n3CCCCC4)c2c1C [9A] | No | No | –

Row | SMILES | Rescue of the tps1Δ strain on 2.5 mM glucose at 100 μM [1] | Selected from primary screen for growth inhibition of A549 cells at 50 μM [2] | Selected for having an IC50 ratio (10 mM glucose: 1 mM glucose) of A549 growth higher than WBC-A [2]
19 | Cc1nc(SCCC#N)c2c(-c3cccs3)csc2n1 [15A] | No | No | –
20 | Cc1nc(Sc2nc(CSc3ccccc3)nc3sc(C)c(C)c23)n[nH]1 [10A] | No | No | –
21 | CCOC(=O)CSc1nc(CN2CCOCC2)nc2scc(-c3cccs3)c12 [35B] | No | No | –
22 | COCCNC(=O)CN(C)c1nc(C)nc2scc(-c3cccs3)c12 [23B] | No | Yes | Lower IC50 ratio
23 | CC(=O)NCc1ccc(C(=O)CSc2nc(C)nc3scc(-c4cccs4)c23)o1 [29B] | Yes | No | –
24 | COc1cccc(NC(=O)CSc2ncnc3sc(C)c(-c4ccccc4)c23)c1 [12B] | No | Yes | Lower IC50 ratio
25 | CCCNC(=O)CN1CCC(Nc2nc(C)nc3scc(-c4cccs4)c23)CC1 [30B] | No | No | –
26 | Cc1nc(NCC(=O)N2CCCC2)c2c(-c3cccs3)csc2n1 [24B] | No | Yes | Lower IC50 ratio
27 | [O-][S+](CCSc1ncnc2scc(-c3ccc(F)cc3)c12)c1ccccc1 (centres unmarked) [45C] | No | Yes | Lower IC50 ratio
28 | c1ccn2c(Sc3ncnc4sc5c(c34)CCC5)nnc2c1 [60A] | No | No | –
29 | Cc1nc(Sc2nnnn2C2CC2)c2c(-c3ccccc3)csc2n1 [56A] | No | Yes | Lower IC50 ratio
30 | CCn1c(Sc2nc(C)nc3scc(-c4cccs4)c23)nnc1-c1ccco1 [38C] | No | No | –
31 | Cc1nc(Sc2nnc3n2CCCCC3)c2c(-c3cccs3)csc2n1 [A] | Yes | Yes | –
32 | Cc1nc(NCCCN2CCC(O)CC2)c2c(-c3cccs3)csc2n1 [16B] | No | No | –
33 | OCCSc1nc(-c2cccs2)nc2scc(-c3ccccc3)c12 [23C] | No | Yes | Lower IC50 ratio
34 | COC(=O)CN(C)c1nc(C)nc2scc(-c3ccc(OC)c(OC)c3)c12 [67C] | No | Yes | Lower IC50 ratio
35 | CCn1nnnc1Sc1nc(CN2CCOCC2)nc2scc(-c3cccs3)c12 [8C] | No | Yes | Lower IC50 ratio
36 | COC(=O)C(C)Sc1nc(C)nc2scc(-c3cccs3)c12 (centres unmarked) [36B] | No | No | –
